In article PMC8779240 (Bioorganic & medicinal chemistry letters, 2021):

Experiments:
[1] = test system: S. aureus ParC^S80F GyrA^S84L; format: cell-based, Staphylococcus aureus; conditions: ParC^S80F/GyrA^S84L strain
Escherichia coli = test: MIC against E. coli; format: cell-based

SMILES	potency compared with fluoroquinolone parent, MIC data in units of μM [1]	other results
CC(=O)O[C@H]1[C@H](C)[C@H](O)[C@H](C)[C@@H](O)[C@@H](C(C)OC(=O)C(C)(C)CC(=O)O)/C=C/C=C(/C)C(=O)Nc2c3oc4cc(NC5(c6c(F)cc7c(=O)c(C(=O)O)cn8c7c6OC[C@@H]8C)CC5)cc(O)c4nc-3c3c4c(c(C)c(O)c3c2=O)O[C@](C)(O/C=C/[C@H](O[C@H]2C[C@@H]3OCO[C@@H]3[C@@H](C)O2)[C@H]1C)C4=O (stereo partly shown) [Compound 5b]	surpassed the potency of their fluoroquinolone parents	–
COc1c(N2C[C@@H]3CCCN(c4cc(O)c5nc6c7c8c9c(C)c(O)c7c(=O)c(c-6oc5c4)NC(=O)/C(C)=C\C=C\[C@H](C(C)OC(=O)C(C)(C)CC(=O)O)[C@H](O)[C@@H](C)[C@@H](O)[C@@H](C)[C@H](OC(C)=O)[C@H](C)[C@@H](O[C@H]4C[C@@H]5OCO[C@@H]5[C@@H](C)O4)/C=C/O[C@@](C)(O9)C8=O)[C@@H]3C2)c(F)cc2c(=O)c(C(=O)O)cn(C3CC3)c12 (stereo partly shown) [Compound 5e]	surpassed the potency of their fluoroquinolone parents	–
CC(=O)O[C@H]1[C@H](C)[C@H](O)[C@H](C)[C@@H](O)[C@@H](C(C)OC(=O)C(C)(C)CC(=O)O)/C=C/C=C(/C)C(=O)Nc2c3oc4cc(N5Cc6cc(-c7ccc8c(=O)c(C(=O)O)cn(C9CC9)c8c7OC(F)F)ccc6[C@H]5C)cc(O)c4nc-3c3c4c(c(C)c(O)c3c2=O)O[C@](C)(O/C=C/[C@H](O[C@H]2C[C@@H]3OCO[C@@H]3[C@@H](C)O2)[C@H]1C)C4=O (stereo partly shown) [Compound 5c]	surpassed the potency of their fluoroquinolone parents	–
CC(=O)O[C@H]1[C@H](C)[C@H](O)[C@H](C)[C@@H](O)[C@@H](C(C)OC(=O)C(C)(C)CC(=O)O)/C=C/C=C(/C)C(=O)Nc2c3oc4cc(N5CCN(c6cc7c(cc6F)c(=O)c(C(=O)O)cn7C6CC6)CC5)cc(O)c4nc-3c3c4c(c(C)c(O)c3c2=O)O[C@](C)(O/C=C/[C@H](O[C@H]2C[C@@H]3OCO[C@@H]3[C@@H](C)O2)[C@H]1C)C4=O (stereo partly shown) [Compound 5a]	–	fold improvement in MIC compared to ciprofloxacin in units of μM ([1]; MIC in μM): ~ 277 fold; fold improvement in activity compared to ciprofloxacin ([1]; MIC in μg/mL): 64 fold
CC(=O)O[C@H]1[C@H](C)[C@H](O)[C@H](C)[C@@H](O)[C@@H](C(C)OC(=O)C(C)(C)CC(=O)O)/C=C/C=C(/C)C(=O)NC2=CC(=O)c3c(c(O)c(C)c4c3C(=O)[C@@](C)(O/C=C/[C@H](O[C@H]3C[C@@H]5OCO[C@@H]5[C@@H](C)O3)[C@H]1C)O4)C2=O (stereo partly shown) [Compound 1, kanglemycin A]	–	Gram-negative activity against E. coli (Escherichia coli): did not show Gram-negative activity
COc1c(N2C[C@@H]3CCCN(CCCNc4cc(O)c5nc6c7c8c9c(C)c(O)c7c(=O)c(c-6oc5c4)NC(=O)/C(C)=C\C=C\[C@H](C(C)OC(=O)C(C)(C)CC(=O)O)[C@H](O)[C@@H](C)[C@@H](O)[C@@H](C)[C@H](OC(C)=O)[C@H](C)[C@@H](O[C@H]4C[C@@H]5OCO[C@@H]5[C@@H](C)O4)/C=C/O[C@@](C)(O9)C8=O)[C@@H]3C2)c(F)cc2c(=O)c(C(=O)O)cn(C3CC3)c12 (stereo partly shown) [Compound 6e]	surpassed the potency of their fluoroquinolone parents	–
